Laboratory results as given in US9936701B2, “Herbicidal compounds” (Syngenta Participations AG, priority 2013, dated 2018).

Legend:
[1] = system: a variety of test species; experiment: Pre-emergence herbicidal activity (glasshouse, sprayed one day after sowing, evaluated after 13 days); type: in vivo; set-up: key: 5=total damage to plant; 0=no damage to plant; conditions: application pre-emergence, rate 1000 g/Ha, scale 0-5
Outline: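 Sow in pots of standard soil; after one day under glasshouse conditions, spray compound (acetone/water 50:50 formulation, 0.5% Tween 20, diluted in water). Grow on at 24/16 °C, 14 h light, 65% humidity with twice-daily watering. Assess at 13 days, 0–5 damage scale.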

[2] = system: a variety of test species; experiment: Post-emergence herbicidal activity (glasshouse, sprayed after 8 days cultivation, evaluated after 13 days); type: in vivo; set-up: key: 5=total damage to plant; 0=no damage to plant; conditions: rate 1000 g/Ha, scale 0-5
Outline: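 Pot-grown seedlings sprayed 8 days after sowing with active ingredient in acetone/water (50:50) plus 0.5% Tween 20. Glasshouse at 24/16 °C day/night, 14 h light, 65% humidity, watered twice daily. Damage scored after 13 days on a 0–5 scale (5 = total damage, 0 = none).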

| Structure (SMILES) | melting point | Pre-emergence herbicidal damage score, ABUTH [1] | Pre-emergence herbicidal damage score, ALOMY [1] | Pre-emergence herbicidal damage score, AMARE [1] | Pre-emergence herbicidal damage score, ECHCG [1] | Pre-emergence herbicidal damage score, SETFA [1] | Pre-emergence herbicidal damage score, ZEAMX [1] | ABUTH (Abutilon theophrasti) damage score, application post-emergence [2] | ALOMY (Alopecurus myosuroides) damage score, application post-emergence [2] | AMARE (Amaranthus retroflexus) damage score, application post-emergence [2] | ECHCG (Echinochloa crus-galli) damage score, application post-emergence [2] | SETFA (Setaria faberi) damage score, application post-emergence [2] | ZEAMX (Zea mays) damage score, application post-emergence [2] |
| --- | --- | --- | --- | --- | --- | --- | --- | --- | --- | --- | --- | --- | --- |
| CCOC1=C(C)C(O)N(c2cc(C(C)(C)C#N)on2)C1=O (stereo not shown) [D6] | 90 to 92 °C | 5 | 4 | 5 | 5 | 4 | 3 | 5 | 4 | 5 | 5 | 5 | 2 |
| COC1=C(C)C(OC(C)=O)N(c2cc(C(C)(C)C)on2)C1=O (stereo not shown) [D7] | 118 to 124 °C | 5 | 3 | 5 | 4 | 5 | 2 | 5 | 4 | 5 | 5 | 5 | 3 |
| CCOC1=C(C)CN(c2cc(C(C)(C)C#N)on2)C1=O [D8] | 127 to 129 °C | 3 | 2 | 4 | 3 | 4 | 2 | 4 | 3 | 5 | 4 | 3 | 0 |
| COC1=C(C)CN(c2noc(C(C)C)c2C#N)C1=O [D10] | 131 to 133 °C | 4 | 3 | 5 | 5 | 5 | 2 | 4 | 5 | 5 | 5 | 5 | 2 |
| COC1=C(C)CN(c2noc(C(C)(C)C)c2C#N)C1=O [D11, 5-tert-butyl-3-(4-methoxy-3-methyl-5-oxo-2H-pyrrol-1-yl)isoxazole-4-carbonitrile] | 138 to 140 °C | 4 | 4 | 5 | 5 | 5 | 3 | 5 | 5 | 5 | 5 | 5 | 4 |
| COC1=C(C)CN(c2cc(C(C)(C)C#N)on2)C1=O [D12] | 103 to 105 °C | 5 | 4 | 5 | 5 | 4 | 2 | 4 | 4 | 5 | 5 | 5 | 2 |
| CCC(C)(C)c1onc(N2CC(C)=C(OC)C2=O)c1C#N [D13] | 72 to 74 °C | 2 | 2 | 5 | 4 | 2 | 2 | 4 | 5 | 5 | 5 | 5 | 2 |

The next lines start with results.

| melting point | Structure (SMILES) | Pre-emergence herbicidal damage score, ABUTH [1] | Pre-emergence herbicidal damage score, ALOMY [1] | Pre-emergence herbicidal damage score, AMARE [1] | Pre-emergence herbicidal damage score, ECHCG [1] | Pre-emergence herbicidal damage score, SETFA [1] | Pre-emergence herbicidal damage score, ZEAMX [1] | ABUTH (Abutilon theophrasti) damage score, application post-emergence [2] | ALOMY (Alopecurus myosuroides) damage score, application post-emergence [2] | AMARE (Amaranthus retroflexus) damage score, application post-emergence [2] | ECHCG (Echinochloa crus-galli) damage score, application post-emergence [2] | SETFA (Setaria faberi) damage score, application post-emergence [2] | ZEAMX (Zea mays) damage score, application post-emergence [2] |
| --- | --- | --- | --- | --- | --- | --- | --- | --- | --- | --- | --- | --- | --- |
| 123 to 133 °C | COC1=C(Cl)C(O)N(c2cc(C(C)(C)C)on2)C1=O (stereo not shown) [E1, 1-(5-tert-butylisoxazol-3-yl)-3-chloro-2-hydroxy-4-methoxy-2H-pyrol-5-one] | 4 | 2 | 5 | 3 | 3 | 2 | 5 | 3 | 5 | 5 | 5 | 0 |
| 101 to 107 °C | COC1=C(Cl)C(OC(C)=O)N(c2cc(C(C)(C)C)on2)C1=O (stereo not shown) [E2, [1-(5-tert-butylisoxazol-3-yl)-3-chloro-4-methoxy-5-oxo-2H-pyrrol-2-yl]acetate] | 5 | 3 | 5 | 4 | 3 | 1 | 5 | 3 | 5 | 5 | 5 | 0 |
| 94 to 106 °C | COC1=C(Cl)CN(c2cc(C(C)(C)C)on2)C1=O [E3] | 2 | 1 | 5 | 3 | 3 | 1 | 1 | 0 | 2 | 2 | 4 | 0 |
| 133 to 135 °C | COC1=C(C)C(=O)N(c2noc(C(C)C)c2C#N)C1O (stereo not shown) [G4] | 4 | 3 | 5 | 5 | 5 | 2 | 5 | 5 | 5 | 5 | 5 | 4 |
| 122 to 124 °C | CCC(C)(C)c1onc(N2C(=O)C(C)=C(OC)C2O)c1C#N (stereo not shown) [G5] | 5 | 3 | 5 | 5 | 5 | 2 | 5 | 5 | 5 | 5 | 5 | 3 |
| 121 to 123 °C | COC1=C(C)C(=O)N(c2cc(C(C)(C)C#N)on2)C1O (stereo not shown) [G6] | 5 | 4 | 5 | 4 | 5 | 4 | 5 | 5 | 5 | 5 | 5 | 5 |
